Laboratory results reported in ChEMBL document CHEMBL2424581, “Optimization of phage heptapeptide library-screening process for developing inhibitors of the isocitrate lyase homologue from Mycobacterium tuberculosis” (Med Chem Res, 2013).

Legend:
Isocitrate lyase = biological target: T1, Isocitrate lyase (Mycobacterium tuberculosis, UniProt P9WKK7); test: Inhibition of Mycobacterium tuberculosis recombinant isocitrate lyase expressed in Escherichia coli BL21 (DE3) using isocitrate as substrate after 10 mins by spectrometric analysis
T1 sequence (P9WKK7 whole entry): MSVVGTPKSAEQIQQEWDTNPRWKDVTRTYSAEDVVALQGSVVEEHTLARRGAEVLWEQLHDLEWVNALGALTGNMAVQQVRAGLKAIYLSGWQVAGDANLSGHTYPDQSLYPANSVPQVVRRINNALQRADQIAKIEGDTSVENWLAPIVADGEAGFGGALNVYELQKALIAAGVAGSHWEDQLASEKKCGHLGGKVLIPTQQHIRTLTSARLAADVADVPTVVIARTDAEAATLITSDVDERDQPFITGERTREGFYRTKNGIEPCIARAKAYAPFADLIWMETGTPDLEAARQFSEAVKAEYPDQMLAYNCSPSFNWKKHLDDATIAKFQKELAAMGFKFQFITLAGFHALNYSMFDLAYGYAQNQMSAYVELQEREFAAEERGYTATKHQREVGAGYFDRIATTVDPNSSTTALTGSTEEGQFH

[1] = biological target: T2, Isocitrate lyase (Mycobacterium tuberculosis) (UniProt P9WKK7); test: Inhibition of Mycobacterium tuberculosis recombinant isocitrate lyase expressed in Escherichia coli BL21 (DE3) using isocitrate as substrate at 1 mg/mL by spectrometric analysis relative to control
T2 sequence (whole entry): T1 sequence (P9WKK7 whole entry)

| Compound | IC50 (Isocitrate lyase) | inhibition [1] |
| --- | --- | --- |
| O=C(O)CC[N+](=O)[O-] | 50.7 µM | – |
| H-HISHLML-OH | 192 µM | 51% |
| H-HYSSHMR-OH [listing 1 of 2 here] | 126 µM | – |
| H-HYSSHMR-OH [listing 2 of 2 here] | – | 72% |
| H-LTLGPLL-OH | 208 µM | 55% |
| H-LTQHLTA-OH | 214 µM | 56% |
| H-LYALATM-OH | 204 µM | 52% |
| H-NPPERSP-OH | 142 µM | 73% |
| H-NSSSLAQ-OH | 190 µM | 62% |
| H-QKASPGA-OH | 172 µM | 73% |
| H-SARVTSR-OH [listing 1 of 2 here] | 166 µM | – |
| H-SARVTSR-OH [listing 2 of 2 here] | – | 65% |
| H-TELSLPS-OH | 182 µM | 61% |
| H-TMHLSPY-OH | 156 µM | 63% |
| H-VTSLKAT-OH | 228 µM | 51% |
